{"source": "patent US8092816B2", "about": "“Insecticidal compositions for control of general household pests” (priority 2004, dated 2012)", "format_in_all_cases": "in vivo", "key": {"German cockroach": {"test_system": "German cockroach", "assay": "Example 1: German cockroach mortality, spray of bifenthrin and imidacloprid combinations", "text": "(§1) The following examples further illustrate the present invention, but, of course, should not be construed as in any way limiting its scope. The examples set forth certain biological data illustrating the efficacy of the compositions of the present invention in controlling general household pests. Each example embodies a separate test wherein the pests were randomly selected from a population at a random age. As a result, from example to example, the ages of the pests can be very different. This age difference potentially translates to different baselines for each example. Therefore, data should only be compared within the example and not from example to example due to the differences in age of the pests from example to example. Unless otherwise indicated, all parts, percentages, and the like are by weight. The spray chamber used in the examples was approximately 76 inches tall, 73 inches long and 31 inches deep with an adjustable shelf (approximately 22 inches deep) and a movable spray nozzle. The spray chambers were calibrated to deliver a volume of approximately 1 gallon of liquid per 1000 square feet of area at about 14 pounds per square inch of pressure. A DeVilbiss hand held sprayer (Atomizer model 152) manufactured by DeVilbiss located in Glendale Heights, Ill. was used in testing house flies and mosquitoes. The DeVilbiss was used to apply approximately 3-5 milliliters of product at about 10 pounds per square inch.\nThe compositions of the present invention were tested for German cockroach activity in the following manner:\n(§2) Test compositions made up of TALSTARONE® MULTI-INSECTICIDE and a wettable powder of imidacloprid (MERIT) in distilled water were prepared that provided appropriate rates of application of combinations of bifenthrin and imidacloprid, as well as bifenthrin and imidacloprid alone.\nThe spray chamber was then calibrated to deliver the treatment solution at the desired volume and pressure over the desired area on the chamber shelf. Spray chamber shelf height was adjusted to approximately 18 inches from the spray tip. The shelf was then covered with aluminum foil and the center of the shelf from front-to-back and end-to-end was determined. A desired number of 4.0″ sieve circles were marked on the aluminum foil with a permanent marker. The inside of a desired number of PVC rings were coated with a petroleum jelly/mineral oil mixture (1:2 ratio). The PVC rings were place on the sieve circles. 10 male German cockroaches were placed inside each PVC ring. The sprayer was activated and the test compound was applied to each PVC ring interior. German cockroach mortality was measured."}, "House Fly [1]": {"test_system": "House Fly", "assay": "Example 12: house fly knockdown and mortality, bifenthrin and thiamethoxam (higher thiamethoxam rates)", "text": "as §1\n(§3) The compositions of the present invention were tested for house fly activity in the following manner:\nTest compositions made up of TALSTARONE® MULTI-INSECTICIDE and a water dispersible granular of thiamethoxam (CENTRIC) in distilled water were prepared that provided appropriate rates of application of combinations of bifenthrin and thiamethoxam, as well as bifenthrin and thiamethoxam alone.\n(§4) A DeVilbiss hand held sprayer was used to deliver the treatment solution at the desired volume and pressure. The house flies to be treated were collected and placed in screened 16 oz paper cups. The hand held sprayer was activated and the test compound was applied to each paper cup interior. House fly knockdown and mortality were measured."}, "House Fly [2]": {"test_system": "House Fly", "assay": "Example 7: house fly knockdown and mortality, bifenthrin and imidacloprid", "text": "as §1, §3, §2, §4"}, "American cockroach": {"test_system": "American cockroach", "assay": "Example 14: American cockroach knockdown and mortality, bifenthrin and clothianidin", "text": "as §1\nThe compositions of the present invention were tested for American cockroach activity in the following manner:\nTest compositions made up of TALSTARONE® MULTI-INSECTICIDE and a 16% a.i. water dispersible granular of clothianidin in distilled water were prepared that provided appropriate rates of application of combinations of bifenthrin and clothianidin, as well as bifenthrin and clothianidin alone.\nThe spray chamber was then calibrated to deliver the treatment solution at the desired volume and pressure over the desired area on the chamber shelf. Spray chamber shelf height was adjusted to approximately 18 inches from the spray tip. The shelf was then covered with aluminum foil and the center of the shelf from front-to-back and end-to-end was determined. A desired number of 4.0″ sieve circles were marked on the aluminum foil with a permanent marker. The inside of a desired number of PVC rings were coated with a petroleum jelly/mineral oil mixture (1:2 ratio). The PVC rings were place on the sieve circles. 10 male American cockroaches were placed inside each PVC ring. The sprayer was activated and the test compound was applied to each PVC ring interior. American cockroach knockdown and mortality were measured."}, "[3]": {"details": "rate of appln. 10 PPM (0.001% by weight)"}, "[4]": {"details": "rate of appln. 50 PPM (0.005% by weight)"}}}
{"smiles": "Cc1c(COC(=O)[C@@H]2[C@H](/C=C(\\Cl)C(F)(F)F)C2(C)C)cccc1-c1ccccc1", "note": "(racemic) [A, 2-methylbiphenyl-3-ylmethyl (Z)-(1RS)-cis-3-(2-chloro-3,3,3-trifluoroprop-1-enyl)-2,2-dimethylcyclopropanecarboxylate]", "values": [{"measurement": "Mortality Rate @ 60 minutes", "setting": "German cockroach; 10 PPM, 0.001% by weight", "value": 3, "unit": "%"}, {"measurement": "Mortality Rate @ 120 minutes", "setting": "German cockroach; 10 PPM, 0.001% by weight", "value": 33, "unit": "%"}, {"measurement": "Mortality Rate @ 1 day", "setting": "German cockroach; 10 PPM, 0.001% by weight", "value": 33, "unit": "%"}, {"measurement": "Mortality Rate @ 2 days", "setting": "German cockroach; 10 PPM, 0.001% by weight", "value": 60, "unit": "%"}, {"measurement": "Mortality Rate @ 60 minutes", "setting": "German cockroach; 50 PPM, 0.005% by weight", "value": 30, "unit": "%"}, {"measurement": "Mortality Rate @ 120 minutes", "setting": "German cockroach; 50 PPM, 0.005% by weight", "value": 48, "unit": "%"}, {"measurement": "Mortality Rate @ 1 day", "setting": "German cockroach; 50 PPM, 0.005% by weight", "value": 58, "unit": "%"}, {"measurement": "Mortality Rate @ 2 days", "setting": "German cockroach; 50 PPM, 0.005% by weight", "value": 100, "unit": "%"}, {"measurement": "Knockdown Rate @ 15 minute", "setting": "House Fly [1]; 10 PPM, 0.001% by weight", "value": 0, "unit": "%"}, {"measurement": "Knockdown Rate @ 30 minute", "setting": "House Fly [1]; 10 PPM, 0.001% by weight", "value": 0, "unit": "%"}, {"measurement": "Knockdown Rate @ 45 minutes", "setting": "House Fly [1]; 10 PPM, 0.001% by weight", "value": 17, "unit": "%"}, {"measurement": "Knockdown Rate @ 60 minutes", "setting": "House Fly [1]; 10 PPM, 0.001% by weight", "value": 40, "unit": "%"}, {"measurement": "Knockdown Rate @ 120 minutes", "setting": "House Fly [1]; 10 PPM, 0.001% by weight", "value": 63, "unit": "%"}, {"measurement": "Knockdown Rate @ 4 hours", "setting": "House Fly [1]; 10 PPM, 0.001% by weight", "value": 50, "unit": "%"}, {"measurement": "Mortality Rate @ 1 day", "setting": "House Fly [1]; 10 PPM, 0.001% by weight", "value": 30, "unit": "%"}, {"measurement": "Knockdown Rate @ 15 minute", "setting": "House Fly [1]; 50 PPM, 0.005% by weight", "value": 0, "unit": "%"}, {"measurement": "Knockdown Rate @ 30 minute", "setting": "House Fly [1]; 50 PPM, 0.005% by weight", "value": 78, "unit": "%"}, {"measurement": "Knockdown Rate @ 45 minutes", "setting": "House Fly [1]; 50 PPM, 0.005% by weight", "value": 97, "unit": "%"}, {"measurement": "Knockdown Rate @ 60 minutes", "setting": "House Fly [1]; 50 PPM, 0.005% by weight", "value": 97, "unit": "%"}, {"measurement": "Knockdown Rate @ 120 minutes", "setting": "House Fly [1]; 50 PPM, 0.005% by weight", "value": 97, "unit": "%"}, {"measurement": "Knockdown Rate @ 4 hours", "setting": "House Fly [1]; 50 PPM, 0.005% by weight", "value": 97, "unit": "%"}, {"measurement": "Mortality Rate @ 1 day", "setting": "House Fly [1]; 50 PPM, 0.005% by weight", "value": 97, "unit": "%"}, {"measurement": "Knockdown Rate @ 15 minute", "setting": "House Fly [2]; 10 PPM, 0.001% by weight", "value": 0, "unit": "%"}, {"measurement": "Knockdown Rate @ 30 minute", "setting": "House Fly [2]; 10 PPM, 0.001% by weight", "value": 0, "unit": "%"}, {"measurement": "Knockdown Rate @ 45 minutes", "setting": "House Fly [2]; 10 PPM, 0.001% by weight", "value": 17, "unit": "%"}, {"measurement": "Knockdown Rate @ 60 minutes", "setting": "House Fly [2]; 10 PPM, 0.001% by weight", "value": 40, "unit": "%"}, {"measurement": "Knockdown Rate @ 120 minutes", "setting": "House Fly [2]; 10 PPM, 0.001% by weight", "value": 63, "unit": "%"}, {"measurement": "Knockdown Rate @ 4 hours", "setting": "House Fly [2]; 10 PPM, 0.001% by weight", "value": 50, "unit": "%"}, {"measurement": "Mortality Rate @ 1 day", "setting": "House Fly [2]; 10 PPM, 0.001% by weight", "value": 30, "unit": "%"}, {"measurement": "Knockdown Rate @ 15 minute", "setting": "House Fly [2]; 50 PPM, 0.005% by weight", "value": 0, "unit": "%"}, {"measurement": "Knockdown Rate @ 30 minute", "setting": "House Fly [2]; 50 PPM, 0.005% by weight", "value": 78, "unit": "%"}, {"measurement": "Knockdown Rate @ 45 minutes", "setting": "House Fly [2]; 50 PPM, 0.005% by weight", "value": 97, "unit": "%"}, {"measurement": "Knockdown Rate @ 60 minutes", "setting": "House Fly [2]; 50 PPM, 0.005% by weight", "value": 97, "unit": "%"}, {"measurement": "Knockdown Rate @ 120 minutes", "setting": "House Fly [2]; 50 PPM, 0.005% by weight", "value": 97, "unit": "%"}, {"measurement": "Knockdown Rate @ 4 hours", "setting": "House Fly [2]; 50 PPM, 0.005% by weight", "value": 97, "unit": "%"}, {"measurement": "Mortality Rate @ 1 day", "setting": "House Fly [2]; 50 PPM, 0.005% by weight", "value": 97, "unit": "%"}, {"measurement": "Knockdown Rate @ 10 minute", "setting": "American cockroach; [3]", "value": 0, "unit": "%"}, {"measurement": "Knockdown Rate @ 15 minute", "setting": "American cockroach; [3]", "value": 0, "unit": "%"}, {"measurement": "Knockdown Rate @ 30 minute", "setting": "American cockroach; [3]", "value": 0, "unit": "%"}, {"measurement": "Mortality Rate @ 60 minute", "setting": "American cockroach; [3]", "value": 0, "unit": "%"}, {"measurement": "Mortality Rate @ 120 minutes", "setting": "American cockroach; [3]", "value": 0, "unit": "%"}, {"measurement": "Mortality Rate @ 4 hours", "setting": "American cockroach; [3]", "value": 0, "unit": "%"}, {"measurement": "Mortality Rate @ 1 day", "setting": "American cockroach; [3]", "value": 10, "unit": "%"}, {"measurement": "Mortality Rate @ 2 days", "setting": "American cockroach; [3]", "value": 30, "unit": "%"}, {"measurement": "Knockdown Rate @ 10 minute", "setting": "American cockroach; [4]", "value": 5, "unit": "%"}, {"measurement": "Knockdown Rate @ 15 minute", "setting": "American cockroach; [4]", "value": 10, "unit": "%"}, {"measurement": "Knockdown Rate @ 30 minute", "setting": "American cockroach; [4]", "value": 5, "unit": "%"}, {"measurement": "Mortality Rate @ 60 minute", "setting": "American cockroach; [4]", "value": 0, "unit": "%"}, {"measurement": "Mortality Rate @ 120 minutes", "setting": "American cockroach; [4]", "value": 0, "unit": "%"}, {"measurement": "Mortality Rate @ 4 hours", "setting": "American cockroach; [4]", "value": 35, "unit": "%"}, {"measurement": "Mortality Rate @ 1 day", "setting": "American cockroach; [4]", "value": 40, "unit": "%"}, {"measurement": "Mortality Rate @ 2 days", "setting": "American cockroach; [4]", "value": 55, "unit": "%"}]}
